Laboratory results taken from PMC9026148, “Pre-Clinical Study Evaluating Novel Protein Phosphatase 2A Activators as Therapeutics for Neuroblastoma” (Cancers, 2022).

Assay: Plasma levels after oral dose in mice
Type: in vivo, mouse
Conditions: male ICR mice, bolus oral dose 50 mg/kg in 1:1:8 DMA:Solutol:water; compared to DBK-1154
Protocol: Blood aliquots were collected via cardiac puncture (300 µL) sampling from anesthetized mice in tubes coated with lithium heparin, mixed gently, then kept on ice and centrifuged at 2500× g for 15 min at 4 °C, within 1 h of collection. The plasma was harvested and kept frozen at −70 °C until further processing.
The plasma samples were processed using protein precipitation and analyzed by LC-MS/MS. A plasma calibration curve was generated. Aliquots of drug-free plasma were spiked with the test articles at the specified concentration levels. The spiked plasma samples were processed together with the unknown plasma samples using the same procedure. The processed plasma samples were placed in the autosampler until the LC-MS/MS analysis, at which time peak areas were recorded, and the concentrations of the test articles in the unknown plasma samples were determined using the respective calibration curve. The reportable linear range of the assay was determined, along with the lower limit of quantitation (LLOQ).
Plots of plasma concentration of test articles, ATUX-792 and DBK-1154, vs. time are constructed and shown in Supplementary Figure S2.
levels compared to DBK -1154. Serum concentration after bolus oral dose of 50 mg/kg in
1:1:8 DMA:Solutol:water (3 animals per time point). Blood aliquots were collected via car- […]
quantitative bioanalysis. […]

With `O=S(=O)(N[C@H]1COC[C@@H](n2c3ccc(Cl)cc3c3cc(Cl)ccc32)[C@@H]1O)c1ccc(OC(F)(F)F)cc1` [ATUX-792] the “oral bioavailability / plasma levels” value was “good oral bioavailability”.
